The values that follow come from ChEMBL document CHEMBL1130375, “Pyridazinones with a pendant acylsulfonamide moiety as endothelin receptor antagonists” (Bioorg Med Chem Lett, 1997).

The target in assay [1] is T1, Endothelin-1 receptor (Rattus norvegicus, UniProt P26684).
T1 sequence (P26684 whole entry): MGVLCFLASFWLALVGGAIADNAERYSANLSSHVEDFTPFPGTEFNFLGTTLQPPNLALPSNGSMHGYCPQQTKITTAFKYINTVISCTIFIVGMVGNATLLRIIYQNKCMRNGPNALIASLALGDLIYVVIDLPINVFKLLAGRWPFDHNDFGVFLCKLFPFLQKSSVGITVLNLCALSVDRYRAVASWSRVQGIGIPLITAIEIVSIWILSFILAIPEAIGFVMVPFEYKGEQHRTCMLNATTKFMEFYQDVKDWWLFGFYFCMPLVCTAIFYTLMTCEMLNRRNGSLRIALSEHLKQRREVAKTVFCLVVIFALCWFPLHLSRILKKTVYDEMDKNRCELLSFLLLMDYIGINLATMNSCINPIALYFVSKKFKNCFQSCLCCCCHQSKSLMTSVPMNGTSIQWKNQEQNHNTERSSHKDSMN
Description: Compound was evaluated for the antagonism at the Endothelin A receptor in isolated rat aortic rings. In kind it is functional. The conditions noted are these: read-out: pA2 (converted).

The target in assay [2] is T1, Endothelin-1 receptor. Put plainly: Inhibition of specific binding of [125I]ET1 (endothelin 1) to the endothelin A receptor of rat aorta membranes. It is filed as cell membranes, Membrane.
The target of assay [3] is T2, Endothelin receptor type B (Homo sapiens, UniProt P24530).
T2 sequence (P24530 whole entry): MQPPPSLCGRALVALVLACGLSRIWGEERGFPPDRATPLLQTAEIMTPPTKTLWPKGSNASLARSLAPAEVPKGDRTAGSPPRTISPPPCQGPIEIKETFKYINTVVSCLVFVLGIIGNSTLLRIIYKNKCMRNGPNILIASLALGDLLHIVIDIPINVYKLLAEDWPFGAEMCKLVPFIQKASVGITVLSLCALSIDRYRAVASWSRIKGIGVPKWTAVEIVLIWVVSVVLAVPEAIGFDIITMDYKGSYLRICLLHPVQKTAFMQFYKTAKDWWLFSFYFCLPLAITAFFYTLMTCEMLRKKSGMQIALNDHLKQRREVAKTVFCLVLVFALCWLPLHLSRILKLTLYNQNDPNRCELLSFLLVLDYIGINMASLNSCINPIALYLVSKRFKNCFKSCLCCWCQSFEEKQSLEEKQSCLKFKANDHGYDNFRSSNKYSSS
Put plainly: Compound was evaluated for the antagonism at the Endothelin B receptor in isolated rabbit jugularis vein. The conditions noted are these: target entry is the homologue from another species; read-out: pA2 (converted). In kind it is functional, Oryctolagus cuniculus.

The target in assay [4] is T3, Endothelin receptor type B (Sus scrofa, UniProt P35463).
T3 sequence (P35463 whole entry): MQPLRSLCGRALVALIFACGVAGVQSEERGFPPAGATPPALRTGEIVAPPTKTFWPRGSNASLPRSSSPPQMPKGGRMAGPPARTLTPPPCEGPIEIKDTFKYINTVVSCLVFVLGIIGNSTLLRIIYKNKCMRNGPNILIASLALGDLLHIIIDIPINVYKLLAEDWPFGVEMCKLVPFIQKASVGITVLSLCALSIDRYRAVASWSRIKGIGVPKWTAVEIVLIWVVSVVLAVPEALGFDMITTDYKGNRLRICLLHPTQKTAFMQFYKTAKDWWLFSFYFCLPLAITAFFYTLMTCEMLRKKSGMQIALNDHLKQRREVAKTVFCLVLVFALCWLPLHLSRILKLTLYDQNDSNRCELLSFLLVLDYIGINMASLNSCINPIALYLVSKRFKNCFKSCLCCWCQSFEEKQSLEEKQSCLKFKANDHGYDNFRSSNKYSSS
Description: Inhibition of specific binding of [125I]ET1 (endothelin 1) to endothelin B receptor of porcine kidney membranes.

Assay [5] concerns the target T1, Endothelin-1 receptor. Description: Compound was evaluated for the antagonism at the Endothelin A receptor (G-protein coupled endothelin A). The conditions noted are these: read-out: pA2 (converted). It is filed as functional.

For `Cc1cc(C)c(=O)n(C(C(=O)NS(=O)(=O)c2ccc(C(C)C)cc2)c2ccc3c(c2)OCO3)n1` (stereo not given), the values for the Kb (on Endothelin-1 receptor [1]; in assay [3]) were 1260 nM and 1580 nM, respectively. Moreover, the IC50 at Endothelin-1 receptor [2] was determined as 29 nM; in assay [4] it was 3500 nM.

For `CC(C)c1ccc(S(=O)(=O)NC(=O)C(c2ccc3c(c2)OCO3)n2nc3c(cc2=O)CCC3)cc1` (stereo not given), the IC50 on Endothelin-1 receptor [2] was found to be 2500 nM; in assay [4], 1700 nM.

With `COc1ccc(-c2ccc(=O)n(C(C(=O)NS(=O)(=O)c3ccc(C(C)C)cc3)c3ccc4c(c3)OCO4)n2)cc1` (stereo not given), the half-inhibitory concentration (IC50) amounted to 3200 nM on Endothelin-1 receptor [2] and 5700 nM in assay [4].

As for `Cc1cc(C)c(=O)n(C(C(=O)NS(=O)(=O)c2ccc(C(C)(C)C)cc2)c2ccc3c(c2)OCO3)n1` (single isomer, unassigned; form 1), the concentration for half-maximal inhibition (IC50) on Endothelin-1 receptor [2] is 2600 nM; in assay [4], greater than 100000 nM.

On to `Cc1ccc(=O)n(C(C(=O)NS(=O)(=O)c2ccc(Br)cc2)c2ccc3c(c2)OCO3)n1` (stereo not given), for which the IC50 was 230 nM on Endothelin-1 receptor [2] and greater than 100000 nM in assay [4].

With `CC(C)c1ccc(S(=O)(=O)NC(=O)C(c2ccc3c(c2)OCO3)N2N=C(c3ccccc3)CCC2=O)cc1` (stereo not given), the IC50 on Endothelin-1 receptor [2] was 2600 nM; in assay [4] it was greater than 100000 nM.

Consider `Cc1ccc(=O)n(C(C(=O)NS(=O)(=O)c2ccccc2)c2ccc3c(c2)OCO3)n1` (stereo not given), for which the IC50 was 230 nM on Endothelin-1 receptor [2] and greater than 100000 nM in assay [4].

Consider `CC(C)c1ccc(S(=O)(=O)NC(=O)C(c2ccc3c(c2)OCO3)N2N=C(c3cccs3)CCC2=O)cc1` (stereo not given), for which the concentration for half-maximal inhibition (IC50) is 3200 nM at Endothelin-1 receptor [2] and greater than 100000 nM in assay [4].

Consider `CCCc1cc(C)c(=O)n(C(C(=O)NS(=O)(=O)c2ccc(C(C)C)cc2)c2ccc3c(c2)OCO3)n1` (stereo not given), for which the values for the IC50 (on Endothelin-1 receptor [2]; in assay [4]) were 290 nM and 4500 nM, respectively.

Regarding `Cc1ccc(=O)n(C(C(=O)NS(=O)(=O)c2ccc(C(C)(C)C)cc2)c2ccc3c(c2)OCO3)n1` (stereo not given), the IC50 at Endothelin-1 receptor [2] turned out to be 32 nM; in assay [4] it was 2000 nM.

On to `CC(C)c1ccc(S(=O)(=O)NC(=O)C(c2ccc3c(c2)OCO3)n2nc(C(C)(C)C)ccc2=O)cc1` (stereo not given), for which the concentration for half-maximal inhibition (IC50) is 4000 nM on Endothelin-1 receptor [2] and greater than 100000 nM in assay [4].

Turning to `COc1ccc(S(=O)(=O)NC(=O)C(c2ccc3c(c2)OCO3)n2nc(C)ccc2=O)cc1` (stereo not given), the IC50 at Endothelin-1 receptor [2] is 160 nM; in assay [4], greater than 100000 nM.

For `COc1ccc(-c2cc(C)c(=O)n(C(C(=O)NS(=O)(=O)c3ccc(C(C)C)cc3)c3ccc4c(c3)OCO4)n2)cc1` (stereo not given), the half-inhibitory concentration (IC50) came to 4000 nM at Endothelin-1 receptor [2] and 7700 nM in assay [4].

In the case of `O=C(O)C(c1ccc2c(c1)OCO2)N1N=C(c2ccccc2)CCC1=O` (stereo not given), the IC50 (on Endothelin-1 receptor [2]; in assay [4]) was greater than 100000 nM each time.

Consider `CCc1cc(C)nn(C(C(=O)NS(=O)(=O)c2ccc(C(C)C)cc2)c2ccc3c(c2)OCO3)c1=O` (stereo not given), for which the IC50 was 32 nM at Endothelin-1 receptor [2] and 2600 nM in assay [4].

Regarding `Cc1cc(C)c(=O)n(C(C(=O)NS(=O)(=O)c2ccc(C(C)(C)C)cc2)c2ccc3c(c2)OCO3)n1` (stereo in doubt; 2q), the IC50 amounted to 20 nM on Endothelin-1 receptor [2] and 1200 nM in assay [4].

Consider `COc1ccc(C2=NN(C(C(=O)NS(=O)(=O)c3ccc(C(C)C)cc3)c3ccc4c(c3)OCO4)C(=O)CC2)c(OC)c1` (stereo not given), for which the IC50 (on Endothelin-1 receptor [2]; in assay [4]) was greater than 100000 nM in each case.

As to `COc1ccc(C2=NN(C(C(=O)NS(=O)(=O)c3ccc(C(C)C)cc3)c3ccc4c(c3)OCO4)C(=O)CC2)cc1OC` (stereo not given), the figures for the IC50 (on Endothelin-1 receptor [2]; in assay [4]) were 4100 nM and greater than 100000 nM, respectively.

Consider `Cc1ccc(=O)n(C(C(=O)NS(=O)(=O)c2ccc(C(C)C)cc2)c2ccc3c(c2)OCO3)n1` (stereo not given), for which the Kb on Endothelin-1 receptor [5] was 631 nM. Also, the figures for the IC50 (on Endothelin-1 receptor [2]; in assay [4]) were 34 nM and 2900 nM, respectively.

Regarding `Cc1ccc(=O)n(C(C(=O)NS(=O)(=O)c2ccc(-c3ccccc3)cc2)c2ccc3c(c2)OCO3)n1` (stereo not given), the 50% inhibitory concentration (IC50) on Endothelin-1 receptor [2] is 240 nM; in assay [4] it was 2400 nM.

For the compound `CCCc1cc(C(=O)O)ccc1OC(C(=O)NS(=O)(=O)c1ccc(C(C)C)cc1)c1ccc2c(c1)OCO2` (stereo not given), the Kb at Endothelin-1 receptor [5] was 3.16 nM. Besides, the IC50 at Endothelin-1 receptor [2] amounted to 41 nM; in assay [4] it was 900 nM.

As for `CCCc1ccc(=O)n(C(C(=O)NS(=O)(=O)c2ccc(C(C)C)cc2)c2ccc3c(c2)OCO3)n1` (stereo not given), the 50% inhibitory concentration (IC50) at Endothelin-1 receptor [2] stood at 640 nM; in assay [4], 8400 nM.

Turning to `COc1ccc(OC)c(C2=NN(C(C(=O)NS(=O)(=O)c3ccc(C(C)C)cc3)c3ccc4c(c3)OCO4)C(=O)CC2)c1` (stereo not given), the IC50 (at Endothelin-1 receptor [2]; in assay [4]) was greater than 100000 nM throughout.

Consider `COc1ccc(C2=NN(C(C(=O)NS(=O)(=O)c3ccc(C(C)C)cc3)c3ccc4c(c3)OCO4)C(=O)CC2)cc1` (stereo not given), for which the 50% inhibitory concentration (IC50) on Endothelin-1 receptor [2] stood at 2900 nM; in assay [4], 4200 nM.

With `Cc1cc(=O)n(C(C(=O)NS(=O)(=O)c2ccc(C(C)C)cc2)c2ccc3c(c2)OCO3)nc1C` (stereo not given), the half-inhibitory concentration (IC50) at Endothelin-1 receptor [2] amounted to 340 nM; in assay [4], 5200 nM.

`CC(C)c1ccc(S(=O)(=O)NC(=O)C(c2ccc3c(c2)OCO3)N2N=C(c3ccc(Cl)cc3)CCC2=O)cc1` (stereo not given): the IC50 stood at 2700 nM on Endothelin-1 receptor [2] and 6400 nM in assay [4].

Consider `Cc1cc(C)c(=O)n(C(C(=O)NS(=O)(=O)c2ccc(C(C)(C)C)cc2)c2ccc3c(c2)OCO3)n1` (single isomer, unassigned; form 2), for which the half-inhibitory concentration (IC50) on Endothelin-1 receptor [2] is 18 nM; in assay [4], 550 nM.

Take `CC(C)c1ccc(S(=O)(=O)NC(=O)C(c2ccc3c(c2)OCO3)n2nc(C3CC3)ccc2=O)cc1` (stereo not given): the values for the 50% inhibitory concentration (IC50) (at Endothelin-1 receptor [2]; in assay [4]) were 260 nM and 2600 nM, respectively.
